Results: patent publication US20060121449A1, “Method for selection of compounds which inhibit clonal cell growth and use thereof” (priority 2002, published 2006)
Entries after “also recorded” stand apart in the source; their conditions may differ. Where two headings read alike, the source gives them in different places.

Experiments:
[1] = test system: polyoma virus transformed BHK21/c13 cells, clone S100T1; assay: Clonal test: clonal growth of S100T1 cells in soft agar (Exp 2, 4, 6, 15, 16); type: cell-based, hamster; details: for Significance: Exp 15, 5th day, ” = as line above; for Clonal growth: Exp 15, plate read the 5th day
Method: The clonal test comprises: • 1. seeding cells in soft agar optionally containing growth factor(s); • 2. handling or incubation of special gels (e.g. ultra low gelling temperature agarose), including the production of cell density gradients. • 3. incubating in suitable temperature and atmosphere and; • 4. regular monitoring of the cells and development of clones.
The clonal test can be directed in fluid medium or in soft agar medium. Usually only transformed cells will form clones in soft agar.
After seeding and mixing, the tubes were placed in the refrigerator for about 1 hour to consolidate the ultra low melting point agarose.
120000 S100T1 cells of a polyoma virus transformed BHK21/c13 cell line, were seeded in 1 ml soft agar medium in Falcon 50 ml centrifuge tubes. […] On the top of the agar layer 0.5 ml fluid medium was added.
Agar cultures were prepared in wells of 24 well Falcon tissue culture plate. […] Insulin (Actrapid, Novo) was added in a concentration of 0.1 i.u./ml to BHK21/c13 cell cultures only.
The cells were all single cells. Each well received 32000 cells (Table 4). Plate: 24 wells Falcon tissue culture plate received a bottom layer composed as in Table 3:
The cells were all single cells.
The wells contained two layers, each of 0.3 ml agar.
The agarose was added to double distilled water and solved by heating in micro oven.

[2] = test system: polyoma virus transformed BHK21/c13 cells, line S100T1; assay: Collocation inhibition test: clonal growth in sparsely and densely seeded areas of a cell density gradient of S100T1 cells in soft agar (Exp 13, 17, 19-26); details: for Clonal growth read on the 3rd day after seeding / Clonal growth read on the 6th day after seeding: Exp 17; for Inhibition of clonal growth of sparsely seeded cells: 117000 S100T1 cells/well;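 on all read-outs here: soft agar cultures in 24-well plates with a cell density gradient in the top layer, compounds applied from DMSO stocks, clonal growth scored in sparse versus dense areas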
[3] = High conc., μM in wells: No 1 (4-OH—OPB) 20, 2 (Colchicine) 0.1, 3 (Diphenylhydantoin) 100, 4 (Podophyllotoxin) 0.3, 5 (Piroxicam) 50, 6 (Diclofenak) 100
[4] = Low conc., μM in wells: No 1 (4-OH—OPB) 2, 2 (Colchicine) 0.01, 3 (Diphenylhydantoin) 10, 4 (Podophyllotoxin) 0.03, 5 (Piroxicam) 5, 6 (Diclofenak) 10, 7 (Ibuprofen) 100, 8 (Naproxen) 50, 9 (Acetylsalicylic acid) 100
[5] = High conc., μM in wells: No 1 (4-OH—OPB) 20, 2 (Colchicine) 0.1, 3 (Diphenylhydantoin) 100, 4 (Podophyllotoxin) 0.3, 5 (Piroxicam) 50, 6 (Diclofenak) 100, 7 (Ibuprofen) 1000, 8 (Naproxen) 500, 9 (Acetylsalicylic acid) 1000
[6] = High: #1 Colchicine 1, #2 Podophyllotoxin 3, #3 Etoposide 200, #4 4-OH—OPB 6.7 μM in wells, #5 DMSO 29.2 μl
[7] = Low: #1 Colchicine 0.1, #2 Podophyllotoxin 0.3, #3 Etoposide 20, #4 4-OH—OPB 0.67 μM in wells, #5 DMSO 1.16 μl
[8] = Medium: #1 Colchicine 0.3, #2 Podophyllotoxin 0.9, #3 Etoposide 60, #4 4-OH—OPB 2 μM in wells, #5 DMSO 6.8 μl
[9] = Experiment 23, A (area with high cell density), High concentration, 48 hours
[10] = Experiment 23, A (area with high cell density), Low concentration, 48 hours
[11] = Experiment 23, A (area with high cell density), Medium concentration, 48 hours
[12] = Experiment 23, B (area with low cell density), High concentration, 48 hours
[13] = Experiment 23, B (area with low cell density), Low concentration, 48 hours
[14] = Experiment 23, B (area with low cell density), Medium concentration, 48 hours
[15] = Summary Table 3 of analogue tests (experiments 22-25), H (high cell density), High concentration
[16] = Summary Table 3 of analogue tests (experiments 22-25), H (high cell density), Low concentration
[17] = Summary Table 3 of analogue tests (experiments 22-25), H (high cell density), Medium concentration
[18] = Summary Table 3 of analogue tests (experiments 22-25), L (low cell density), High concentration
[19] = Summary Table 3 of analogue tests (experiments 22-25), L (low cell density), Low concentration
[20] = Summary Table 3 of analogue tests (experiments 22-25), L (low cell density), Medium concentration
[21] = 4-OH-OPB analogues, S100T1 in soft agar, high concentration
[22] = 4-OH-OPB analogues, S100T1 in soft agar, low concentration
[23] = 4-OH-OPB analogues, S100T1 in soft agar, medium concentration
[24] = sparsely seeded areas while densely seeded areas of the same culture showed significant growth
[25] = Experiment 22, H: area with high cell density, High concentration
[26] = Experiment 22, H: area with high cell density, Low concentration
[27] = Experiment 22, H: area with high cell density, Medium concentration
[28] = Experiment 22, L: area with low cell density, Low concentration
[29] = Experiment 22, L: area with low cell density, Medium concentration
[30] = Experiment 22, L: area with low cell density, High concentration

Row | SMILES | Significance [1, 3] | Significance [1, 4] | Clonal growth [1, 5] | Clonal growth [1, 4] | Clonal growth read on the 3rd day after seeding [2, 6] | Clonal growth read on the 6th day after seeding [2, 7] | Clonal growth read on the 3rd day after seeding [2, 8] | Clonal growth read on the 6th day after seeding [2, 8] | Clonal growth [2, 15] | Clonal growth [2, 16] | Clonal growth [2, 17] | Clonal growth [2, 18] | Clonal growth [2, 19] | Clonal growth [2, 20] | Clonal growth, H: high density area of cell gradient, High [2, 21] | Clonal growth, L: low density area of cell gradient, High [2, 21] | Clonal growth, H: high density area of cell gradient, Low [2, 22] | Clonal growth, L: low density area of cell gradient, Low [2, 22] | Clonal growth, H: high density area of cell gradient, Medium [2, 23] | Clonal growth, L: low density area of cell gradient, Medium [2, 23] | also measured
1 | Oc1ccc(N=Nc2ccccc2)cc1 [#1, p-hydroxy-azobenzene] | yes | yes | − | − | − | + | ++ | + | +(+) | +++ | +++ | +− | ++ | ++ |  |  |  |  |  |  | Clonal growth, H: high density area of cell gradient, Low [2]: +++; Clonal growth, H: high density area of cell gradient, Medium [2]: +++; Clonal growth, L: low density area of cell gradient, High [2]: +−; Clonal growth, L: low density area of cell gradient, Low [2]: ++; Clonal growth, L: low density area of cell gradient, Medium [2]: ++; Clonal inhibition by 4-OH-OPB analogues, summary of Exp 22-25 [2]: complete inhibition of growth in sparsely seeded areas; Clonal growth read on the 3rd day after seeding [2, 7]: ++; Clonal growth [2, 9]: +(+); Clonal growth [2, 10]: +++; Clonal growth [2, 11]: +++; Clonal growth [2, 12]: +−; Clonal growth [2, 13]: ++; Clonal growth [2, 14]: ++
2 | CCCCC(O)(C(=O)Nc1ccccc1)C(=O)Nc1ccc(O)cc1 (stereo not shown) [#2, 2-Butyl-2-hydroxy-N-(4-hydroxy-phenyl)-N′-phenyl malonamide] | no | no |  | ++ |  | + |  | (+ | ++ | ++(+) | ++ | − | ++ | ++ | ++ | − | ++(+) | ++ | ++ | ++ | Clonal growth [2, 9]: ++; Clonal growth [2, 10]: ++(+); Clonal growth [2, 11]: ++; Clonal growth [2, 12]: −; Clonal growth [2, 13]: ++; Clonal growth [2, 14]: ++; Clonal inhibition by 4-OH-OPB analogues, summary of Exp 22-25 [2, 24]: complete inhibition of growth in sparsely seeded areas
3 | CCCCC(=O)C(=O)Nc1ccccc1 [#3, 2-oxo-hexanoic acid phenylamide] | ” | ” |  | ++ | (+) | + | (+) |  | ++ | ++(+) | ++(+) | ++ | ++(+) | ++(+) | ++ | ++ | ++(+) | ++(+) | ++(+) | ++(+) | Clonal growth read on the 6th day after seeding [2, 6]: −; Effect on growth ([2]; Exp 23, 180000 S100T1 cells/well): did not show significant growth inhibition at all; Clonal growth [2, 9]: ++; Clonal growth [2, 10]: ++(+); Clonal growth [2, 11]: ++(+); Clonal growth [2, 12]: ++; Clonal growth [2, 13]: ++(+); Clonal growth [2, 14]: ++(+)
4 | CCCCC(C(=O)Nc1ccccc1)C(=O)Nc1ccc(O)cc1 (stereo not shown) [#4, 2-Butyl-N-(4-hydroxy-phenyl)-N′-phenylmalonamide] | probably | ” |  |  | − | + | − | ((+)) | ++ | ++ | ++ |  | ++ | ++ | ++ | ((+)) | ++ | ++ | ++ | ++ | Clonal growth read on the 6th day after seeding [2, 6]: ((+)); Clonal growth read on the 3rd day after seeding [2, 7]: +; Inhibition of clonal growth of sparsely seeded cells ([2]; Exp 22): smaller effect; also recorded: showed an effect, but even higher concentration was needed than for #6; Clonal growth [2, 25]: ++; Clonal growth [2, 26]: ++; Clonal growth [2, 27]: ++; Clonal growth [2, 28]: ++; Clonal growth [2, 29]: ++
5 | O=C1N(c2ccccc2)N(c2ccccc2)C(=O)C1(O)CC[S+]([O-])c1ccccc1 (stereo not shown) [#6, 1,2-diphenyl-4-hydroxy-4-[2-(phenylsulfinyl)ethyl]-3,5-pyrazolidinedione] | ” | probably* | ++ |  |  |  |  |  | ++ | ++ | ++ | − | ++ |  | ++ | − | ++ | ++ | ++ | ((+)) | Effect at low concentration ([2]; Exp 22): no effect was observed; Inhibition of clonal growth of sparsely seeded cells ([2]; Exp 22): best inhibitor of clonal growth of sparsely seeded cells; Clonal growth [2, 25]: ++; Clonal growth [2, 26]: ++; Clonal growth [2, 27]: ++; Clonal growth [2, 30]: −; Clonal growth [2, 28]: ++; Clonal inhibition by 4-OH-OPB analogues, summary of Exp 22-25 [2, 24]: complete inhibition of growth in sparsely seeded areas
6 | CCCCC1(O)C(=O)N(c2ccccc2)N(c2ccc(OC)cc2)C1=O (stereo not shown) [#7, 4-(1-butyl)-4-hydroxy-1-(4-methoxyphenyl)-2-phenyl-3,5-pyrazolidinedione] |  | no | − |  |  |  |  |  | ++ | ++ | ++ | (+) | ++ | ++ | ++ | (+) | ++ | ++ | ++ | ++ | Inhibition of clonal growth of sparsely seeded cells ([2]; Exp 22): smallest effect; also recorded: might have a small similar effect; Clonal growth [2, 25]: ++; Clonal growth [2, 26]: ++; Clonal growth [2, 27]: ++; Clonal growth [2, 30]: (+); Clonal growth [2, 28]: ++; Clonal growth [2, 29]: ++
